# Reference: article PMC5730406 (European journal of immunology, 2015)
# Target: T1, Itk F434G/Δ429 (Itkas) (Homo sapiens, UniProt Q08881, DEL429-429/F435G)
# T1 sequence (Q08881 with tags, fused parts or gaps DEL429-429/F435G): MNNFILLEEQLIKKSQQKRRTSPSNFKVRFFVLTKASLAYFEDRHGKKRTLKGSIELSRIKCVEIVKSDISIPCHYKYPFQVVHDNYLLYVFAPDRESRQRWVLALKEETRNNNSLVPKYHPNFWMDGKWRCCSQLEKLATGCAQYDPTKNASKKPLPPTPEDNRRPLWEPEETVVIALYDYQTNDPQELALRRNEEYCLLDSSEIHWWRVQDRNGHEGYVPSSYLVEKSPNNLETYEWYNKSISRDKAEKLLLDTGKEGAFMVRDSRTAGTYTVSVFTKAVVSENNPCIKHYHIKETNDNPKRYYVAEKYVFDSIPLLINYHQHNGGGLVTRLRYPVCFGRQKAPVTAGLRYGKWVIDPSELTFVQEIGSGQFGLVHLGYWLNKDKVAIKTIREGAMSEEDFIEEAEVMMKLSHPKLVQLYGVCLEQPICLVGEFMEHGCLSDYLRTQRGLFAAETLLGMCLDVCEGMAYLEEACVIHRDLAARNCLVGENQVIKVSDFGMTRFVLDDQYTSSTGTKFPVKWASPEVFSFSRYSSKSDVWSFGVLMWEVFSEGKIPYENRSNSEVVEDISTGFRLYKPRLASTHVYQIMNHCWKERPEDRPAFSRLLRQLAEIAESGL
# Assay type: cell-based
compound,measurement,value
CC(C)(C)n1nc(Cc2cccc3ccccc23)c2c(N)ncnc21 [1-NM-PP1],IC50,~50 nM
